Data set [1] has as its system dopaminergic fibers from the lower layers of the prefrontal cortex. Kind of data set: Intracerebral stereotaxic injections of 6-hydroxydopamine eliminating dopaminergic fibers in adult rats. The note with it: unpublished work by the inventor. It counts as in vivo, rat. From the text: In the normal brain, dopaminergic fibers are distributed mainly in lower layers of the prefrontal cortex, Dopaminergic-fibers are abnormally distributed within the prefrontal cortex in schizophrenic patients with very low density in the lower layers (Akil, Pierri, Whitehead, Edgar, Mohila, Sampson and Lewis, American Journal of Psychiatry 1999, 156:1580-1589). […] Based on this work the inventor believed that abnormal laminar distribution of dopaminergic fibers in the prefrontal cortex may be responsible for the enhanced dopaminergic activity seen in schizophrenia. While abnormal distribution of dopaminergic fibers has been described in the prefrontal cortex in schizophrenic brains (Akil, Pierri, Whitehead, Edgar, Mohila, Sampson and Lewis, American Journal of Psychiatry 1999, 156:1580-1589), this has never implicated in the manifestation of dopaminergic hyperactivity.

Data set [2] relates to subcortical dopamine responsivity. Kind of data set: Behavioral testing (sniffing, locomotion, rearing) after saline or d-amphetamine challenge. In kind it is in vivo, rat. The method, then: Animals at 5 or 10 weeks of age were habituated to the testing area for three hours each on 2 consecutive days. On the 3rd day, animals were habituated for an hour and then injected with saline (0.2 ml, l.p.) and their behaviors were monitored visually for an hour. They were then injected with d-amphetamine (5 mg/kg, l.p.) and their behaviors were monitored for an additional one-hour. An examiner who was blind to the animal groups performed testing. Several behavioral measures including locomotion, rearing (vertical activity), sniffing and grooming were monitored. Different cohorts of animals were used for testing at 5 and 10 weeks. For stress response, animals were submerged in water at room temperature for 5 min in a large container, then they were placed in a plexiglass box and their behaviors (similar to those described above) were visually monitored,
For novelty induced stress response, animals were subjected to novel environment or object and their motor behaviors were monitored. Behavioral data was analyzed using standard statistical methods (Rajakumar, Laurier, Niznik and Stoessi, Synapse 1997, 26: 199-208).

The target in data set [3] is T1, (Homo sapiens, UniProt P08138).
T1 sequence (P08138 29-427): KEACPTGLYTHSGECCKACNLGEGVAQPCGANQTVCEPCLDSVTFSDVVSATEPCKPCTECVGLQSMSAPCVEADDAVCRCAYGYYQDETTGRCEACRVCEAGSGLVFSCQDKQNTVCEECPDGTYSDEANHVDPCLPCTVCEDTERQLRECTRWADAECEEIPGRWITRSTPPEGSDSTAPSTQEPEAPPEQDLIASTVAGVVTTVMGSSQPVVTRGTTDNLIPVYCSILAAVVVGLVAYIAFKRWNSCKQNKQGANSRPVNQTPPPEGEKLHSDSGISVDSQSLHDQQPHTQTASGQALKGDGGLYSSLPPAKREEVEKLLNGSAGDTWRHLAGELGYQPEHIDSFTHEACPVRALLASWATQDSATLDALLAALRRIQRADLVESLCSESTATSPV
To be noted: cited from earlier work.

In data set [4] the test system is subplate cells in the developing prefrontal cortex. Kind of data set: Apoptosis of subplate cells after neonatal intracerebral injections of nerve growth factor (activated caspase-3 immunoreactivity). It counts as in vivo, rat. The note with it: for apoptosis of subplate cells / neurons: intracerebral injections into developing prefrontal cortex of postnatal rats (250 ng/μl/site, postnatal days 3 and 4). The method, then: Neonatal rat pups received daily injections of nerve growth factor into the developing prefrontal cortex at 2, 3 and 4 days of age (similarly other animals such as mice or monkeys can be injected at the appropriate neonatal or fetal period of prefrontal cortical development characterized by the expression of p75 receptor in subplate cells). Scalp of rat pups were sprayed with a topical anesthesia, and 1 μl of nerve growth factor ([…] in saline, human recombinant Nerve growth factor, Cedarlane Laboratories) was pressure injected with a 30 gauges needle into the developing prefrontal cortex on each side. Injections were made 1.5 mm in front of the bregma which is visible through the scalp, 0.5 mm lateral to the midline and 1.5 mm deep to the scalp surface. Injections were made slowly over 10 sec and the needle was left in situ for an additional 30 sec. Pups were kept separated from their mother for approximately 20 min during injecttion sessions. During this time they were kept warm. Control rat pups received exactly similar treatment but injected with saline. Experimental and control rats were marked with an ear punch on the right and left ears, respectively. After injection session pups were returned to their mother and allowed to grow under standard conditions.
Both neonatally nerve growth factor or saline injected rats were anesthetized with an intraperitoneal injection of sodium pentobarbital (Somnatol, 40 mg/kg) at 5 weeks or 10 weeks of age and perfused transcardially with a solution containing 4% freshly depolymerized paraformaldehyde in 0.1 M phosphate buffer at pH 7.4. Brains were removed, cryoprotected in 18% buffered-sucrose for 24 hours at 4° C., and sectioned in a freezing microtome 40 μm thick sections were processed for Nissl staining and immunohistochemistry as described previously (Rajakumar, Elisevich and Flumerfelt, Journal of Comparative Neurology 1994, 350:324-336).

In data set [5] the test system is prefrontal cortex. Put plainly: Histological examination and immunohistochemistry of brains of neonatally injected rats. It counts as in vivo, rat. As to the method: […] Brains were removed, cryoprotected in 18% buffered-sucrose for 24 hours at 4° C., and sectioned in a freezing microtome 40 μm thick sections were processed for Nissl staining and immunohistochemistry as described previously (Rajakumar, Elisevich and Flumerfelt, Journal of Comparative Neurology 1994, 350:324-336).

[6] abbreviates: at 5 weeks, d-amphetamine 5 mg/kg i.p. vs saline, control and experimental animals.
Setting [7] is: at 5 weeks, saline or d-amphetamine challenge, n=30.
Setting [8] is: at 10 weeks, d-amphetamine challenge, n=36.
Setting [9] is: adult rat, neonatal injections, vs control.

The values that follow come from patent US7902421B2, “Animal model for schizophrenia” (London Health Sciences Centre Research Inc., priority 2003, dated 2011).

“Also recorded” adds a separate entry of the source.

With `NCCc1cc(O)c(O)cc1O` [6-hydroxydopamine], in data set [1], the “subcortical dopaminergic activity to systemic injections of amphetamine” value was “markedly enhanced subcortical dopaminergic activity”.

In the case of `C[C@H](N)Cc1ccccc1` [d-amphetamine, reference compound], in data set [2] (setting [6]), the “effect of amphetamine injection on sniffing” value is listed as “increases sniffing in both groups of animals” and the “effect of amphetamine injection on total duration of locomotion” value is “increases the total duration of locomotion in both groups of animals”. In data set [2] (at 10 weeks, d-amphetamine 5 mg/kg i.p. vs saline, control and experimental animals), the “effect of amphetamine injection on sniffing” value was “increases sniffing in both groups of animals”.

Take Pro-nerve growth factor: the “increased affinity for p76 receptors” value in data set [3] was more than 1000 fold.

Take nerve growth factor: the entries for the “apoptosis of subplate cells / neurons” value in data set [4] and in data set [4] (listed as NGF) were “resulting in apoptosis of the subplate cells; also recorded: specifically induced apoptosis of subplate neurons” and “induces apoptosis”, respectively. The “effect on the hippocampus or other parts of the cerebral cortex” value in data set [4] (method of injection adopted, neonatal period) was “does not affect the hippocampus or any other parts of the cerebral cortex”. Also, in data set [4] (postnatal rat brain, intracerebral injections), the “mechanical, ischemic or inflammatory lesion” value is listed as “without causing any substantial mechanical, ischemic or inflammatory lesion”. Further, the “immunoreactivity of activated caspase-3 in subplate cells” value in data set [4] (six day-old rat pup, daily intracerebral injections on postnatal days 2, 3 and 4) was “undergoing apoptosis”. The subcortical dopaminergic responsivity result in data set [2] (adult (after the 8th week), injections of d-amphetamine) was “enhanced subcortical dopamine responsivity; also recorded: increased subcortical dopaminergic responsivity”. The “response to changes in the environment” value in data set [2] (after the 8th week, neonatally injected rats) was “prolonged and enhanced response”. The results for the “total duration of locomotor behavior, experimental vs control animals” value in data set [2] (setting [7]) and in data set [2] (setting [8]) were “no differences” and “significantly increased locomotor behavior”, respectively. Also, the “total duration of rearing behavior, experimental vs control animals” value in data set [2] (setting [7]) was “no differences”; in data set [2] (setting [8]), “significantly increased rearing”. Besides, the “total duration of sniffing behavior, experimental vs control animals” value was “no differences” in data set [2] (setting [7]) and “no differences” in data set [2] (at 10 weeks, saline or d-amphetamine challenge, n=36). Moreover, the “growth and behavioral patterns, experimental vs control rats” value in data set [2] (until 8 weeks of age) was “comparable growth and behavioral patterns”. Besides, the “parvalbumin neuronal number in the prefrontal cortex” value in data set [5] (adult rat, control vs NGF-treated) is listed as “comparable”. Further, the “GABA transporter-1 immunoreactive synapses in the prefrontal cortex” value in data set [5] (setting [9]) is “fewer; also recorded: markedly diminished”; in data set [5] (adult rat, neonatal injections, vs control, listed as NGF) it was “markedly diminished”. The “density of tyrosine hydroxylase labeled (dopaminergic) fibers in lower layers of the prefrontal cortex” value in data set [5] (setting [9]) was “considerably decreased; also recorded: decreased density”; in data set [5] (adult rat, neonatal injections, vs control, listed as Nerve growth factor), “decreased dopaminergic fibers”. In addition, the “laminar distribution of parvalbumin immunoreactive terminals in the prefrontal cortex” value in data set [5] (setting [9]) is “altered laminar distribution of parvalbumin immunoreactive terminals”. Moreover, the “gross structure throughout the brain” value in data set [5] (histological examination of neonatally injected rats) is recorded as “apparently normal gross structure”. Also, the “laminar distribution of GABAergic terminals in the prefrontal cortex” value in data set [5] (injected animals as adults) is recorded as “altered laminar distribution”. Further, in data set [5] (neonatally injected rats in comparison to control animals), the “lateral and third ventricular size” value is “moderately enlarged; also recorded: relatively larger”. The “volume of lateral ventricles” value in data set [5] (rat sacrificed at 6 months of age, neonatal injections, vs control) is reported as “increased considerably”.
